Here are results for 15 compounds from patent US11912719B2, “Substituted isoquinolines as rock kinase inhibitors” (Cervello Therapeutics LLC, priority 2018, dated 2024).

Like-named read-outs stand apart in the source and are kept apart here.

Common to all, as to format: biochemical
In experiment [1] the target is T1, human AKT1 catalytic domain (Homo sapiens, UniProt P31749).
T1 construct: GST; purchased Carna BioSciences 01-101
The experiment can be described thus: fluorescence coupling (TR-FRET) enzymatic assay, AKT1 off-target control. The conditions noted are these: 0.5 nM enzyme, 4 μM ATP, 50 nM Ulight-CREBTide, one hour room temperature. As for the experimental part: (§1) Dose-response curves for compounds of the present invention were determined using a fluorescence coupling enzymatic assay using purified C-terminal truncated human ROCK1 catalytic domain (amino acids 1-477 of accession number NP_005397.1) fused to GST (Carna BioSciences, Catalog #01-109) and purified C-terminal truncated human ROCK2 enzyme kinase domain (amino acids 1-553 of accession number NP_004841.2) fused to GST BioSciences, Catalog #01-110). In addition, full length cGMP-dependent protein kinase 1 (PKG or PRKG1; amino acids 1-686 of accession number NP_006249.1) fused to GST (Carna BioSciences, Catalog #01-142), full length PKACα (PRKACA; amino acids 1-351 of accession number NP_002721.1) fused to GST (Carna BioSciences, Catalog #01-127), and C-terminal truncated human AKT1 catalytic domain (amino acids 104-480 of accession number NP_005154.1) fused to GST Biosciences, Catalog #01-101) were used as a control to measure any non-desired off-target kinase activity.
(§2) Briefly, compounds of the present invention were solubilized in DMSO and a series of 12, three-fold serial dilutions were made for each compound in 2.5% DMSO. The initial starting concentration for the serial dilutions of each compound was 10 μM or 100 μM. Control samples lacking compound, ROCK enzyme or ATP also were prepared and processed in parallel with compound test samples.
(§3) A 4 μL aliquot of each serial dilution of test compound diluted in H2O with 2.5% DMSO was added to a well containing 4 μL of 10 nM purified N-truncated ROCK1 (4 nM final concentration), 10 nM purified N-truncated ROCK2 enzyme (4 nM final concentration), 1.25 nM AKT1 (0.5 nM final concentration), 25 pM PKACA (10 pM final concentration) or 20 nM PKG (8 nM final concentration), in reaction buffer containing 50 mM Hepes, pH 7.5, 1 mM EGTA, 10 mM MgCl2, 2 mM DTT, and 0.01% Tween 20 (final concentration). To initiate the enzymatic reaction, 2 μL of a solution was added to each well to provide a final concentration of 50 nM Ulight-CREBTide peptide substrate (Perkin Elmer, Catalog #TRF0107) and 4 μM ATP for ROCK1 and AKT1 assays, […] for ROCK2 assays and 30 μM ATP for PKG assays, or 1 μM ATP for PKACA assays. The reaction mixtures were incubated at room temperature for one hour. After one hour, the reaction was stopped by the addition of a 10 solution of an Europium-labelled phospho-CREB (Ser133) antibody (Perkin Elmer, Catalog #TRF0200) in LANCE buffer supplemented with 20 mM EDTA. The stopped reaction mixtures were incubated at room temperature for 90 minutes. The TR-FRET 665/620 ratios were determined using a Clariostar monochromator plate reader instrument (BMG LabTech) in accordance with the manufacturer's instructions. The ICso value for each compound was determined from each dose-response curve using GraphPad Prism 7 software with a sigmodial dose response. Key: A is IC50≤100 nM; B is 100 nM<IC50<1000 nM; C is 1,000<IC50≤10,000 nM; D is IC50>10,000 nM

The target in experiment [2] is T2, human ROCK2 enzyme kinase domain (Homo sapiens, UniProt O75116).
T2 construct: GST; purchased Carna BioSciences 01-110
T2 sequence (O75116 1-553): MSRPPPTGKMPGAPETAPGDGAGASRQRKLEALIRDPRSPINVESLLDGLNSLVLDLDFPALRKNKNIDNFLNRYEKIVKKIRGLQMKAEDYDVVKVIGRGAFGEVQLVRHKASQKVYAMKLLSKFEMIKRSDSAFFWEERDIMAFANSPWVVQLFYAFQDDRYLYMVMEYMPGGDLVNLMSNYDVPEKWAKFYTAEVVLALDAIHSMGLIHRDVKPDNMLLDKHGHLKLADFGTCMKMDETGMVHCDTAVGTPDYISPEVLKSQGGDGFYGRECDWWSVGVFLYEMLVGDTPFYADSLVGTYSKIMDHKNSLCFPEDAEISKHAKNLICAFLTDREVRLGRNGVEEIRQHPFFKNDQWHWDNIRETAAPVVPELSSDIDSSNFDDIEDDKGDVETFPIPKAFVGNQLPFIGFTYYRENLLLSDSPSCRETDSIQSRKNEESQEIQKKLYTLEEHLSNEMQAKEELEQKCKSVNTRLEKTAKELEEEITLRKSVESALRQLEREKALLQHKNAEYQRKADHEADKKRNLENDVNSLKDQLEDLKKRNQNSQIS
The experiment can be described thus: fluorescence coupling (TR-FRET) enzymatic assay, ROCK2. The conditions noted are these: 4 nM enzyme, 50 nM Ulight-CREBTide, one hour room temperature. As for the experimental part:
as §1, §2, §3

A further experiment has as its target T3, PKACα (PRKACA) (Homo sapiens, UniProt P17612).
T3 construct: GST; purchased Carna BioSciences 01-127
The experiment in a line: fluorescence coupling (TR-FRET) enzymatic assay, PKACA off-target control. The conditions noted are these: 10 pM enzyme, 1 μM ATP, 50 nM Ulight-CREBTide, one hour room temperature. As for the experimental part: as §1, §2, §3

The target in experiment [3] is T4, human ROCK1 catalytic domain (Homo sapiens, UniProt Q13464).
T4 construct: GST; purchased Carna BioSciences 01-109
T4 sequence (Q13464 1-477): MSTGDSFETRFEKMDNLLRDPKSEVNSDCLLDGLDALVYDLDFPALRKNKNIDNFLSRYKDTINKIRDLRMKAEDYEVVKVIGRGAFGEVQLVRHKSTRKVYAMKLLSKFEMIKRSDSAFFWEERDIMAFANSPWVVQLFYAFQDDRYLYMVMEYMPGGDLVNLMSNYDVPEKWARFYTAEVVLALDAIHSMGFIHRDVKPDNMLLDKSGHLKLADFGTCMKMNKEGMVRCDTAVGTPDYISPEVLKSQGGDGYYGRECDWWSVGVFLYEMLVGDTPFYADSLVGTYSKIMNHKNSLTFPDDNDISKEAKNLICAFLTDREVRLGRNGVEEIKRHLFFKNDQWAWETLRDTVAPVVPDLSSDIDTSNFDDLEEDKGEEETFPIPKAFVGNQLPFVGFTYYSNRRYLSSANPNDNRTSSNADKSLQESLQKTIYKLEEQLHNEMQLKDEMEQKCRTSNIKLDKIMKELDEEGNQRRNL
The experiment can be described thus: fluorescence coupling (TR-FRET) enzymatic assay, ROCK1. As for the experimental part:
as §2
The reaction mixtures were incubated at room temperature for one hour. After one hour, the reaction was stopped by the addition of a 10 solution of an Europium-labelled phospho-CREB (Ser133) antibody (Perkin Elmer, Catalog #TRF0200) in LANCE buffer supplemented with 20 mM EDTA. The stopped reaction mixtures were incubated at room temperature for 90 minutes. […] The ICso value for each compound was determined from each dose-response curve using GraphPad Prism 7 software with a sigmodial dose response.

Experiment [4] addresses T5, cGMP-dependent protein kinase 1 (PKG or PRKG1) (Homo sapiens, UniProt Q13976).
T5 construct: GST; purchased Carna BioSciences 01-142
T5 sequence (Q13976 1-686 isoform Q13976-2): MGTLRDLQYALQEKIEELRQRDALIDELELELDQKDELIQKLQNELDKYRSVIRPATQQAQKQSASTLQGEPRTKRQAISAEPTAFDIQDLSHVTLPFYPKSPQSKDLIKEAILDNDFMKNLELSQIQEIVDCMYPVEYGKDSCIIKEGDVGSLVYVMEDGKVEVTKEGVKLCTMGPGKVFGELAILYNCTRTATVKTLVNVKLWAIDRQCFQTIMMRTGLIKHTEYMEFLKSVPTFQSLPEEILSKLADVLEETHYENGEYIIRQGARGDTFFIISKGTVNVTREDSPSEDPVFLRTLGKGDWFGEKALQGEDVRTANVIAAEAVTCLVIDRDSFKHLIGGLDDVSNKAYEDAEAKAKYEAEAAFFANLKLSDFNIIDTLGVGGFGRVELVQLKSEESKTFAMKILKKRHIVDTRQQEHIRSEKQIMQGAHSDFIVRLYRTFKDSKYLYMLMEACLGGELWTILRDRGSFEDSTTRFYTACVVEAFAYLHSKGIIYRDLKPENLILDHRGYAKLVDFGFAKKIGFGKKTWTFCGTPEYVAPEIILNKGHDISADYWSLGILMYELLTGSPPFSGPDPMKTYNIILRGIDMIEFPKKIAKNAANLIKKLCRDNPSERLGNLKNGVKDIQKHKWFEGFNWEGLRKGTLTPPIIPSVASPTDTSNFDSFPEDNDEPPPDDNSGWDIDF
The experiment can be described thus: fluorescence coupling (TR-FRET) enzymatic assay, PKG off-target control. The conditions noted are these: 8 nM enzyme, 30 μM ATP, 50 nM Ulight-CREBTide, one hour room temperature. As for the experimental part: as §1, §2, §3

Setting [5] is: 4 nM enzyme, 4 μM ATP, 50 nM Ulight-CREBTide, one hour room temperature, read-out: ROCK1 IC50.

T1 sequence (P31749 104-480): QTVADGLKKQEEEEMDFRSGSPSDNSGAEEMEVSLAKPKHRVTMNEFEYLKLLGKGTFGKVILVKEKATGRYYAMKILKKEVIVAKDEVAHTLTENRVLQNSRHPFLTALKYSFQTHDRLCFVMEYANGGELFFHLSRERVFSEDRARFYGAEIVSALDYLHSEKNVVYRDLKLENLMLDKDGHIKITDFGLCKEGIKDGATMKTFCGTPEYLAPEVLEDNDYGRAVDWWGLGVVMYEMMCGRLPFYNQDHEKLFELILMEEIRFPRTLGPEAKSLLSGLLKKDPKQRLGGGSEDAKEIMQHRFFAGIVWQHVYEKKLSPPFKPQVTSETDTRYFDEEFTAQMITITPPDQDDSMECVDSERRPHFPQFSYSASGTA

For the compound `CC1CN(S(=O)(=O)c2cccc3c(=O)[nH]ccc23)c2ccccc21` (stereo not drawn) [Example 13, 5-((3-Methylindolin-1-yl)sulfonyl)isoquinolin-1 (2H)-one], the half-maximal inhibitory concentration (IC50) (in experiment [1]; in experiment [2]; against PKACα (PRKACA); in experiment [3] (setting [5]); in experiment [4]) was > 10 µM in each case.
As to `CNc1cc(C#N)cc2c1CCN2S(=O)(=O)c1cccc2c(=O)[nH]cc(Cl)c12` [Example 42, 1-((4-chloro-1-oxo-1,2-dihydroisoquinolin-5-yl)sulfonyl)-4-(methylamino)indoline-6-carbonitrile], the 50% inhibitory concentration (IC50) in experiment [1] is > 10 µM; in experiment [2] it was < 0.1 µM; against PKACα (PRKACA), > 10 µM; in experiment [3] (setting [5]), 0.1 to 1 µM; in experiment [4] it was > 10 µM.
As to `CCNc1cc(C#N)cc2c1CCN2S(=O)(=O)c1cccc2c(=O)[nH]cc(Cl)c12` [Example 44, 1-((4-chloro-1-oxo-1,2-dihydroisoquinolin-5-yl)sulfonyl)-4-(ethylamino)indoline-6-carbonitrile], the IC50 in experiment [1] was > 10 µM; in experiment [2], 1 to 10 µM; at PKACα (PRKACA), > 10 µM; in experiment [3] (setting [5]), 1 to 10 µM; in experiment [4] it was > 10 µM.
Consider `O=S(=O)(c1cccc2c(O)ncc(F)c12)N1CCc2ccc(Cl)cc21` [Example 21, 5-((6-Chloroindolin-1-yl)sulfonyl)-4-fluoroisoquinolin-1-ol], for which the IC50 (in experiment [1]; in experiment [2]; on PKACα (PRKACA); in experiment [3] (setting [5]); in experiment [4]) was > 10 µM each time.
`O=c1[nH]ccc2c(S(=O)(=O)N3CCc4ccc(Cl)cc43)cccc12` [Example 4, 5-((6-Chloroindolin-1-yl)sulfonyl)isoquinolin-1 (2H)-one]: the half-maximal inhibitory concentration (IC50) was > 10 µM in experiment [1]; 0.1 to 1 µM in experiment [2]; > 10 µM against PKACα (PRKACA); 0.1 to 1 µM in experiment [3] (setting [5]); > 10 µM in experiment [4].
Regarding `N#Cc1ccc2c(c1)N(S(=O)(=O)c1cccc3c(=O)[nH]ncc13)CC2` [Example 26, 1-((1-Oxo-1,2-dihydrophthalazin-5-yl)sulfonyl)indoline-6-carbonitrile], the IC50 in experiment [1] is > 10 µM; in experiment [2], 0.1 to 1 µM; at PKACα (PRKACA), > 10 µM; in experiment [3] (setting [5]), 0.1 to 1 µM; in experiment [4], > 10 µM.
Take `N#Cc1ccc2c(c1)N(S(=O)(=O)c1cccc3c(=O)[nH]cc(Cl)c13)CC2` [Example 27, 1-((4-chloro-1-oxo-1,2-dihydroisoquinolin-5-yl)sulfonyl)indoline-6-carbonitrile]: the half-inhibitory concentration (IC50) in experiment [1] is 1 to 10 µM; in experiment [2], < 0.1 µM; against PKACα (PRKACA) it was 1 to 10 µM; in experiment [3] (setting [5]) it was < 0.1 µM; in experiment [4], > 10 µM.
For the compound `N#Cc1ccc2c(c1)N(S(=O)(=O)c1cccc3c(=O)[nH]ccc13)CC2` [Example 15, 1-((1-Oxo-1,2-dihydroisoquinolin-5-yl)sulfonyl)indoline-6-carbonitrile], the IC50 was > 10 µM in experiment [1]; < 0.1 µM in experiment [2]; > 10 µM on PKACα (PRKACA); 0.1 to 1 µM in experiment [3] (setting [5]); > 10 µM in experiment [4].
Take `COc1cc(C#N)cc2c1CCN2S(=O)(=O)c1cccc2c(=O)[nH]ccc12` [Example 29, 4-methoxy-1-((1-oxo-1,2-dihydroisoquinolin-5-yl)sulfonyl)indoline-6-carbonitrile]: the IC50 in experiment [1] was 1 to 10 µM; in experiment [2], < 0.1 µM; at PKACα (PRKACA), 1 to 10 µM; in experiment [3] (setting [5]), < 0.1 µM; in experiment [4] it was > 10 µM.
`Cc1cnc(O)c2cccc(S(=O)(=O)N3CCc4ccc(C#N)cc43)c12` [Example 22, 1-((1-Hydroxy-4-methylisoquinolin-5-yl)sulfonyl)indoline-6-carbonitrile]: the half-maximal inhibitory concentration (IC50) in experiment [1] was > 10 µM; in experiment [2], < 0.1 µM; on PKACα (PRKACA) it was 1 to 10 µM; in experiment [3] (setting [5]) it was < 0.1 µM; in experiment [4] it was > 10 µM.
As for `Cc1cc(C#N)cc2c1CCN2S(=O)(=O)c1cccc2c(=O)[nH]ccc12` [Example 18], the 50% inhibitory concentration (IC50) in experiment [1] is > 10 µM; in experiment [2], 0.1 to 1 µM; against PKACα (PRKACA), > 10 µM; in experiment [3] (setting [5]), 0.1 to 1 µM; in experiment [4], > 10 µM.
In the case of `N#Cc1cc2c(cn1)CCN2S(=O)(=O)c1cccc2c(=O)[nH]ccc12` [Example 28, 1-((1-oxo-1,2-dihydroisoquinolin-5-yl)sulfonyl)-2,3-dihydro-1H-pyrrolo[3,2-c]pyridine-6-carbonitrile], the half-inhibitory concentration (IC50) was > 10 µM in experiment [1]; 0.1 to 1 µM in experiment [2]; > 10 µM against PKACα (PRKACA); 0.1 to 1 µM in experiment [3] (setting [5]); > 10 µM in experiment [4].
As for `Cc1ccc2c(c1)N(S(=O)(=O)c1cccc3c(=O)[nH]ccc13)CC2` [Example 6, 5-((6-Methylindolin-1-yl)sulfonyl)isoquinolin-1 (2H)-one], the IC50 was > 10 µM in experiment [1]; 0.1 to 1 µM in experiment [2]; > 10 µM against PKACα (PRKACA); 1 to 10 µM in experiment [3] (setting [5]); > 10 µM in experiment [4].
Take `O=c1[nH]ccc2c(S(=O)(=O)N3CCc4c(CO)cccc43)cccc12` [Example 7, 5-((4-(Hydroxymethyl)indolin-1-yl)sulfonyl)isoquinolin-1 (2H)-one]: the IC50 in experiment [1] is > 10 µM; in experiment [2], 1 to 10 µM; on PKACα (PRKACA) it was > 10 µM; in experiment [3] it was 1 to 10 µM; in experiment [4] it was > 10 µM.
`O=c1[nH]ccc2c(S(=O)(=O)N3CCc4ccc(F)cc43)cccc12` [Example 5, 5-((6-Fluoroindolin-1-yl)sulfonyl)isoquinolin-1 (2H)-one]: the IC50 is > 10 µM in experiment [1]; 1 to 10 µM in experiment [2]; > 10 µM against PKACα (PRKACA); 1 to 10 µM in experiment [3] (setting [5]); > 10 µM in experiment [4].

Usually IC50 stands for the concentration that inhibits the measured activity by half.
